{"source": "patent US20220265625A1", "about": "“COMPOSITIONS AND METHODS USING TRIGONELLINE AND MINERALS FOR PREVENTING OR TREATING CONDITIONS OR DISORDERS IN SKELETAL MUSCLE” (SOCIETE DES PRODUITS NESTLE S.A., priority 2019, published 2022)", "key": {"[1]": {"test_system": "Human primary myoblasts", "test": "NAD+ colorimetric quantification in differentiated human primary myoblasts", "format": "cell-based", "details": "16h, different doses", "procedure": "After one day, the differentiation is induced by a medium change for 4 days. Cells were treated with synthetic trigonelline monohydrate (FIG. 4A) or with Fenugreek seed extract enriched in trigonelline containing 40.45% trigonelline (FIG. 4B) for 16h at difference doses. NAD+was measured using colorimetric NAD+quantification assay (Biovision NAD+/NADH Quantitation Colorimetric Kit #k337-100)."}, "[2]": {"test_system": "C57BL/6JRj male mice", "test": "Liver NAD+ after oral gavage in mice", "format": "in vivo", "details": "equimolar of 300mg/kg trigonelline, 120 minutes", "procedure": "10 weeks C57BL/6JRj male mice received trigonelline (sigma #T5509) or fenugreek seed extract enriched in trigonelline (40.45% trigonelline) by oral gavage (equimolar of 300mg/kg trigonelline, n=8/group). After 120 minutes treatment, the liver was harvested and flash frozen in liquid nitrogen. NAD+was measured in liver using an enzymatic method adapted from Dall, M., et al., Mol Cell Endocrinol, 2018. 473: p. 245-256."}, "[3]": {"test_system": "Human Skeletal Muscle Myotubes (HSMM)", "details": "6h", "procedure": "Human primary myoblasts from two different donors were seeded in 6 well plates at a density of 200′000 cells per well in skeletal muscle growth medium (SKM-M, AMSbio). After one day, the differentiation was induced by a medium change for 4 days using differentiation culture medium\n(Gibco No. 31330-028). Cells were treated with isotopically labelled trigonelline (^13C carbonyl; 3^2H on methyl) for 6h.\nCell extracts were separated on a Vanquish UHPLC +focused LC system (Thermo Scientific) with a hydrophilic liquid chromatography (HILIC) iHILIC-Fusion(P) column (Hilicon) carrying the dimensions 150 x 2.1 mm, 5 pm and a guard column (iHILIC-fusion(P), Hilicon) in front. The separation of metabolites was achieved by applying a linear solvent gradient in normal phase at 0.25 mL/min flow rate and 35° C. of temperature. As mobile phase, solvent A was water with 10 mM ammonium acetate and 0.04% (v/v) ammonium hydroxide, pH ˜9.3, and solvent B was acetonitrile.\nThe eluting metabolites were analyzed with an Orbitrap Fusion Lumos mass spectrometer (Thermo Scientific) with a heated electrospray ionization (H-ESI) source in positive and negative mode at a resolution of 60,000 at m/z of 200. Instrument control and data analysis were conducted using Xcalibur (Thermo Scientific)."}, "[4]": {"test_system": "C. elegans", "details": "1mM, chronic exposure from Day 1 adulthood", "procedure": "Worm lifespan tests were performed using about 100 animals per condition and scored manually every other day. Trigonelline treatment and experimental measurements were started at Day 1 of wild type N2 worm adulthood, in a regimen of chronic exposure till experiments termination."}, "[5]": {"test_system": "C. elegans", "details": "1 mM", "procedure": "C. elegans mobility test was performed using the Movement Tracker software (Mouchiroud, L. et al. Curr Protoc Neurosci 77, 8.37.1-8.37.21 (2016)). The experiments were repeated at least twice. Trigonelline treatment and experimental measurements were started at Day 1 of wild type N2 worm adulthood, in a regimen of chronic exposure till experiments termination."}, "[6]": {"test_system": "C. elegans", "details": "1 mM, day 8 and day 11 old worms", "description": "45 to 60 worms per condition were manually scored for mobility after poking. Worms that were unable to respond to any repeated stimulation were scored as dead. […] Trigonelline treatment and experimental measurements were started at Day 1 of wild type N2 worm adulthood, in a regimen of chronic exposure til experiments termination."}, "[7]": {"test_system": "RW1596 (myo-3p::GFP) worms", "details": "1mM trigonelline chloride, 11 day old worms", "procedure": "RW1596 (myo-3p::GFP) worms were collected at Day 1 (young adults) and at Day 11 (aged animals) for muscle integrity assessment. Worms were immobilized with tetramisole and analyzed by confocal microscopy, to assess the muscle fibers morphology shown by GFP fluorescence imaging. Trigonelline treatment with 1mM trigonelline chloride and experimental measurements were started at Day 1 of wild type N2 worm adulthood, in a regimen of chronic exposure till experiments termination."}, "[8]": {"test_system": "C. elegans", "details": "1mM trigonelline chloride, day 8 old worms", "procedure": "Absolute quantification of the mtDNA copy number in wild type N2 worms was performed by real-time PCR. Relative values for nduo-1, and act-1 were compared within each sample to generate a ratio representing the relative level of mitochondrial DNA per nuclear genome. The average of at least two technical repeats was used for each biological data point. Each experiment was performed on at least ten independent biological samples (individual worms). Trigonelline treatment with 1mM trigonelline chloride and experimental measurements were started at Day 1 of wild type N2 worm adulthood, in a regimen of chronic exposure till experiments termination."}}}
{"molecule": "C[n+]1cccc(C(=O)O)c1.[OH-]", "note": "[chemically synthesized trigonelline]", "values": [{"measurement": "NAD+ content compared to the control", "setting": "[1]", "value": "significant increase"}, {"measurement": "NAD+ content in the liver compared to the control", "setting": "[2]", "value": "significant increase"}]}
{"molecule": "[2H]C([2H])([2H])[n+]1cccc([13C](=O)[O-])c1", "note": "[labelled trigonelline, reference compound]", "values": [{"measurement": "relative abundance of labelled NAD+(M+1) (FIG. 2B)", "setting": "[3]; labelled trigonelline 500pm, vs naturally occurring NAD+ in control", "value": "increase"}]}
{"molecule": "C[n+]1cccc(C(=O)O)c1", "note": "[trigonelline chloride]", "values": [{"measurement": "increase in lifespan", "setting": "[4]", "value": 21, "unit": "%"}, {"measurement": "distance travelled during spontaneous mobility assay vs control", "setting": "[5]; advanced aging phase", "value": "significantly increased"}, {"measurement": "mean speed during spontaneous mobility assay vs control", "setting": "[5]; from day 1 adulthood", "value": "increased the mean speed"}, {"measurement": "stimulated mobility score (worms responsive to a physical stimulus)", "setting": "[6]", "value": "more responsive to a physical stimulus than the control"}]}
{"molecule": "C[n+]1cccc(C(=O)[O-])c1", "note": "[trigonelline, 1-methylpyridin-1-ium-3-carboxylate]", "values": [{"measurement": "NAD+ relative concentration vs control (FIG. 2A)", "setting": "[3]; HSMM from 2 donors, 500pm, LC-MS", "value": "enhancement"}, {"measurement": "myofibrillar structure (GFP-tagged myosin) vs age matched control", "setting": "[7]", "value": "improved more organized myofibrillar structure"}, {"measurement": "mitochondrial expression relative to nuclear expression (mt/nDNA, nduo-1/act-1)", "setting": "[8]", "value": "higher than in the control group"}]}
